# Experimental data taken from paper PMC12382740, “In Vitro and In Vivo Characterization of Novel Cathelicidin-Based Peptides with Antimicrobial Activity Against Pseudomonas aeruginosa” (Antibiotics, 2025).
# Like-named read-outs stand apart in the source and are kept apart here. Bridge positions count the residues as written; N and C are the ends. Ends that are not written are not given here. Peptide text beside a SMILES is read from it.
# What was measured:
# [1] = tested on: Colistin Susceptible P. aeruginosa; type: cell-based, Pseudomonas aeruginosa
# Description: (§1) The antimicrobial activity of the peptides was tested against a collection of P. aeruginosa, selected by their resistance or susceptibility to colistin and/or classified as MDR strains. The origin of the strains was either clinical, relevant to the current clinical situation, or commercial strains belonging to the American Type Culture Collection (ATCC, Manassas, VA, USA), which complemented the collection for comparison and control. For the initial activity screening of the 17 peptides, we tested them against P. aeruginosa ATCC strains 1211007 and 1211101. Both strains are multidrug-resistant; however, the key difference is that strain 1211007 is susceptible to colistin, whereas strain 1211101 is resistant to colistin.
# (§2) Minimum Inhibitory Concentration (MIC) of the antimicrobial agents against bacterial strains was obtained through broth microdilution assays following a protocol based on the Clinical & Laboratory Standards Institute’s guidelines. Modifications regarding microplate material and broth were included when testing the peptides’ activity and are detailed below. Colistin MICs were obtained following recommendations of the joint CLSI-EUCAST Polymyxin Breakpoints Working Group using Cation Adjusted Mueller-Hinton Broth (90922, 500 g Sigma-Aldrich®, St. Louis, MO, USA), and strains Escherichia coli 13846 (mcr-1 positive) and P. aeruginosa ATCC 27853 were used as quality controls in all assays. Bacteria were cultured in Columbia Agar plates (Columbia Agar with 5% Sheep Blood 90 mm Stacker plates, Becton Dickinson, Franklin Lakes, NJ, USA) and incubated overnight at 37 °C. Polypropylene round-bottomed 96-well plates (-96-well Polypropylene Storage Microplates, 267334, Thermo Fischer Scientific, Waltham, MA, USA) were used to prevent peptide binding to plate walls. AST broth (BD Phoenix™ AST broth, 8 mL, 246003, Becton Dickinson, Franklin Lakes, NJ, USA) was used when testing the peptides’ activity. […] Three biological and technical replicates were performed per strain.
# [2] = tested on: Colistin-Resistant P. aeruginosa; type: cell-based, Pseudomonas aeruginosa
# Description: as §1, §2
# [3] = colistin-susceptible P. aeruginosa
# [4] = colistin-susceptible P. aeruginosa, value in brackets
# [5] = colistin-resistant P. aeruginosa, value in brackets
Molecule,"MIC [1, 3] [µg/mL]","MIC [1, 4] [µM]",MIC ([2]; colistin-resistant P. aeruginosa) [µg/mL],"MIC [2, 5] [µM]",MIC ([1]; Colistin Susceptible) [µg/mL],MIC ([2]; Colistin-Resistant) [µg/mL]
CC[C@H](C)[C@@H]1NC(=O)[C@@H](NC(=O)[C@@H](NC(=O)[C@@H]2CCCN2C(=O)[C@H](Cc2ccccc2)NC(=O)[C@H](Cc2c[nH]cn2)NC(=O)[C@@H](NC(=O)[C@@H](N)CC(=O)O)[C@@H](C)O)[C@@H](C)CC)CSSC[C@@H](C(=O)N[C@@H](CCCCN)C(=O)N[C@H](C(=O)O)[C@@H](C)O)NC(=O)[C@@H]2CSSC[C@@H]3NC(=O)[C@@H]4CSSC[C@H](NC(=O)[C@H](Cc5ccccc5)NC1=O)C(=O)N[C@@H](CSSC[C@H](NC(=O)[C@H](CCCCN)NC(=O)[C@H](CO)NC(=O)[C@H](CCCNC(=N)N)NC(=O)[C@H](Cc1c[nH]cn1)NC3=O)C(=O)NCC(=O)N[C@@H](CCSC)C(=O)N2)C(=O)NCC(=O)N4 [Hepcidin],> 256,> 92,> 256,> 92,–,–
"CC[C@H](C)[C@@H]1NC(=O)[C@@H]2CSSC[C@@H]3NC(=O)[C@H](Cc4ccccc4)NC(=O)[C@H](C)NC(=O)[C@H](Cc4c[nH]c5ccccc45)NC(=O)[C@H](CC(C)C)NC(=O)[C@H](CCCNC(=N)N)NC(=O)CNC(=O)[C@H](CCC(N)=O)NC(=O)[C@H](Cc4ccc(O)cc4)NC(=O)[C@H]([C@@H](C)CC)NC(=O)[C@H](CSSC[C@H](NC(=O)[C@H](Cc4ccc(O)cc4)NC(=O)[C@@H](N)CSSC[C@@H](C(=O)O)NC3=O)C(=O)N[C@@H](CCCNC(=N)N)C(=O)N[C@@H]([C@@H](C)CC)C(=O)N3CCC[C@H]3C(=O)N[C@@H](C)C(=O)N2)NC(=O)[C@H]([C@@H](C)O)NC(=O)CNC(=O)[C@H](Cc2ccc(O)cc2)NC(=O)[C@H](CCCNC(=N)N)NC(=O)[C@H](CCCNC(=N)N)NC(=O)[C@H](CCC(=O)O)NC(=O)CNC(=O)[C@H](C)NC1=O [α-defensin 2] (H-CYCRIPACIAGERRYGTCIYQGRLWAFCC-OH; disulfide 1-29, 3-18, 8-28; N-terminus and C-terminus assumed)",–,> 15,–,> 15,> 50,> 50
"CC[C@H](C)[C@@H]1NC(=O)[C@H](CCC(=O)O)NC(=O)[C@@H]2CSSC[C@@H]3NC(=O)[C@H](Cc4ccc(O)cc4)NC(=O)[C@@H](NC(=O)[C@@H](NC(=O)[C@H](C)N)[C@@H](C)O)CSSC[C@@H](C(=O)N[C@@H](CCCNC(=N)N)C(=O)O)NC(=O)[C@H](CSSC[C@H](NC(=O)[C@H](CCCNC(=N)N)NC(=O)CNC(=O)[C@H]([C@@H](C)O)NC(=O)[C@H](CCCNC(=N)N)NC3=O)C(=O)N[C@@H](C)C(=O)N[C@@H]([C@@H](C)O)C(=O)N[C@@H](CCCNC(=N)N)C(=O)N[C@@H](CCC(=O)O)C(=O)N[C@@H](CO)C(=O)N[C@@H](CC(C)C)C(=O)N[C@@H](CO)C(=O)NCC(=O)N[C@@H](C(C)C)C(=O)N2)NC(=O)[C@H](CC(C)C)NC(=O)[C@H](CCCNC(=N)N)NC(=O)[C@H](Cc2ccc(O)cc2)NC(=O)[C@H](CC(C)C)NC(=O)[C@H](CCCNC(=N)N)NC(=O)CNC(=O)[C@H](CO)NC1=O [α-defensin 5] (H-ATCYCRTGRCATRESLSGVCEISGRLYRLCCR-OH; disulfide 3-31, 5-20, 10-30; N-terminus and C-terminus assumed)",50,14,–,–,–,–
GLLRKGGEKIGEKLKKIGQKIKNFFQKLVPQPEQ [CRAMP],–,–,–,8,–,32
ISRLAGLLRKGGEKIGEKLKKIGQKIKNFFQKLVPQPEQ [CRAMP 1-39],–,–,–,7,–,32
